These results are taken from patent US20230017266A1, “Cyclooxygenase-2 Inhibition for the Treatment of SAA-high Asthma” (THE USA, AS REPRESENTED BY THE SECRETARY, DEPT. OF HEALTH …, priority 2019, published 2023).

SMILES strings stand for the structures.

This experiment has as its system NF-κB p65. The experiment can be described thus: Phosphorylation of NF-κB p65 serine 529 in monocytes stimulated with HDL+SAA1 (flow cytometry). The experiment is classed as cell-based, human. The conditions noted are these: A438079 10 μM for 2 h, then HDL+SAA1 15 min; CD45+/CD14+/CD16− monocytes. Here is the method: Phosphorylation of NF-κB p65. PBMCs isolated using Lymphoprep™ were resuspended in X-VIVO™ 15 serum-free hematopoietic cell medium (Lonza, Walkersville, Md.) and treated with the P2X7R antagonist, A438079 (10 ∝M), for 2 h prior to stimulation with HDL+SAA1 for 15 min^53. Subsequent cell processing was performed at 4° C. or on ice. Cells were washed with cold PBS, centrifuged at 300×g for 5 min, and reacted in a volume of 100 ∝l PBS for 15 min with the following antibodies; APC-Cy™7 mouse anti-human CD45 clone 2D1 (catalog #557833), FITC mouse anti-human CD14 clone M5E2 (catalog #555397), APC mouse anti-human CD16 clone B73.1 (catalog #561304), all form BD Biosciences (San Jose, Calif.) and cell viability dye (L34959, ThermoFisher Scientific, Frederick, Md.). […] Cells were washed with Phosflow Perm Buffer III and PBS, resuspended in PBS, and analyzed using a Fortessa analyzer equipped with 355, 407, 488, 532 and 640 nm LASER lines using FACS DIVA 8.0 software (BD Biosciences, San Jose, Calif.). […] Mean fluorescence intensity (MFI) was calculated and overlay histogram plots were generated to quantify phosphorylation of NF-κB p65 serine 529 among various treatment conditions.
(A flow cytometer gives signals particle by particle.)

Consider `Clc1cccc(-c2nnnn2Cc2cccnc2)c1Cl` [A438079], for which the “HDL+SAA1-mediated phosphorylation of p65 NF-κB” value was “attenuated”.
